Data taken from EP0684822B1, “CARBOCYCLIC DEOXYGUANOSINE ANALOGS FOR THE TREATMENT OF VIRAL INFECTIONS” (SOUTHERN RESEARCH INSTITUTE, priority 1993, dated 1994).
≈ marks a conversion by molar mass, not a printed value. Where “and” joins values, the source holds several entries; their conditions need not be identical. Equal values may be shown once. One block for each compound: values may come before it.

Key:
HSV-2 (strain MS, TK+) = assay: Antiviral activity against HSV-2; assay type: cell-based
Experimental: (§1) D-2'-CdG and L-2'-CdG were tested, alongside D,L-2'-CdG, against both HSV-1 (strain 377, TK+; obtained from Dr. Earl Kern, University of Alabama) and HSV-2 (strain MS, TK+; also obtained from Dr. Earl Kern). In these tests (Table 5), Ara-A and acyclovir (ACV) were the positive control drugs. In four tests vs. HSV-1, the antiviral activity (VR) and potency (MIC50) of D-2'-CdG were approximately the same as those of racemic 2-CdG. L-2'-CdG was only modestly active.
These compounds were tested against HSV-2(TK^+). The VR of ACV was somewhat higher than the VR values of D-2'-CdG and D,L-2'-CdG, but the values of MIC50 of the two forms of 2'-CdG were lower. In addition, experiments comparing the antiviral activity D-2'-CdG with acyclovir against HSV-1 in human foreskin fibroblasts have shown an even greater potency, in favor of D-2'-CdG.

HSV-1 (strain 377, TK+) = assay: Antiviral activity against HSV-1; assay type: cell-based
Experimental: as §1

HBV = HBV DNA production and replication in 2.2.15 cell cultures; assay type: cell-based, Hepatitis B virus (HBV); settings: 100 uM
Experimental: 2'-CdG was tested at three concentrations (50 ng/ml, 500 ng/ml, and 5 ug/ml) against the HBV-producing, human liver cell line, 2.2.15 (Sells et al., J. Virol. 62:2836, 1989). A racemic (D,L) preparation, as well as the purified D and L isomers were tested. For these analyses compounds were tested in duplicate at all concentrations. Ara-AMP and ddG (2'3'-dideoxyguanosine) were used as HBV inhibitory control compounds. […] The nucleoside analog, ddG was used as an additional control compound since ddG has activity against duck hepatitis B virus in chronically infected Peking ducks (Lee et al., Antimicrob. Agents Chemother. 33:336, 1989) and 2'-CdG is also a deoxyguanosine analog.
2.2.15 cells were seeded in 6 well culture plates and grown to confluence over a 10 day period in medium with 5% FBS. Test compounds were then added daily for a continuous 10 day period in medium with 1% dialyzed FBS. […] Compounds were tested, in duplicate cultures, at 3 concentrations covering a 100-fold range. Culture medium (changed daily during the treatment period) was collected and stored for analysis of extracellular (virion) HBV DNA from days 0, 3, 6, and 10 of the treatment period. This allowed for an analysis of the level of HBV virion production during discrete 24 hour intervals and reduced the potential for the buildup of toxic metabolites derived from the test compounds. Treated cells were lysed following the 10th day of treatment for the analysis of intracellular HBV genomic forms. HBV DNA was analyzed in a quantitative manner for (i) overall levels (both extracellular and intracellular DNA) and (ii) the relative rate of HBV replication (intracellular DNA only).
HBV DNA levels were measured by comparison to known amounts of HBV DNA standards applied to every nitrocellulose filter (gel or slot blot) using an AMBIS Beta Scanner. Standard curves, generated by multiple analyses, were used to correlate CPM measurements with relative levels of target HBV DNA. The levels of HBV DNA in each of three classes of intracellular viral genomic forms were individually quantitated: integrated HBV DNA, episomal monomeric genomes and HBV DNA replication intermediates (RI). Integrated HBV DNA was used to normalize the relative amounts of DNA in each lane because the levels of this class of HBV DNA would be expected to remain constant on a per cell basis. The levels of the monomeric HBV genomes and RI were used as an indicator of the relative level of HBV replication.

human CMV = assay: In vitro activity against human CMV in human foreskin fibroblast cells; assay type: cell-based; settings: Human betaherpesvirus 5, read-out: ED50 value (median dose at which 50% antiviral efficacy is observed)
Experimental: The in vitro activity of D-2'-CdG was also compared with the current investigational drug of choice for human CMV, DHPG. These experiments were carried out in human foreskin fibroblast cells.

HSV-1 TK = target: T1, HSV-1 TK (Human herpesvirus 1, UniProt P0DTH5); assay: Competitive inhibition of [3H]-thymidine phosphorylation by partially purified HSV-1 TK; assay type: biochemical
T1 construct: HSV thymidine kinase (HSV TK) was isolated from HELA (BU25) cells infected with the SW148 strain of HSV-1; made in house; host or cells: HeLa (BU25) thymidine-kinase-deficient cells infected with HSV-1 strain S148/SW148
Experimental: The Ki's were determined from a plot of the slope of each line versus the concentration of the competitor (D-, L, or D,L-2'CdG) and are summarized below: TABLE 2

[1] = 24 hours following 10th day of treatment

T1 sequence (P0DTH5 whole entry): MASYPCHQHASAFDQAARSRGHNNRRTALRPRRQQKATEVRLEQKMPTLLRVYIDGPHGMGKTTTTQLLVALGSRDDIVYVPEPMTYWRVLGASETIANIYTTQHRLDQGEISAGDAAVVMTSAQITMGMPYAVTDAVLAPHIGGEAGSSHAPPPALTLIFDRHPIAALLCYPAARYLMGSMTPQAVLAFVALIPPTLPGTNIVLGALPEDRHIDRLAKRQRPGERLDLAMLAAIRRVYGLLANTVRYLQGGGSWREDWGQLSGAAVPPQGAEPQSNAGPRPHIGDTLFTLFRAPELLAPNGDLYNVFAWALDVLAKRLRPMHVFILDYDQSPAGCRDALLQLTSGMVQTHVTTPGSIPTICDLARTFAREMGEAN

SMILES: Nc1ncnc2c1ncn2[C@@H]1O[C@H](CO)[C@@H](O)[C@@H]1O [Ara-A, adenosine arabinoside, reference compound]
VR (HSV-2 (strain MS, TK+); HSV-2): 1.3 | EC50 (HSV-2 (strain MS, TK+); Human alphaherpesvirus 2, read-out: Mic50): 50 µg/mL (≈ 187 µM) | VR (HSV-1 (strain 377, TK+); HSV-1, range of tests): 1.6-2.5 | EC50 (HSV-1 (strain 377, TK+); Human alphaherpesvirus 1, read-out: Mic50): 10 to 34 µg/mL (≈ 37.4 to 127 µM)

SMILES: Nc1nc2c(ncn2[C@H]2CC[C@@H](CO)O2)c(=O)[nH]1 [DDG, 2'3'-dideoxyguanosine, reference compound]
INTRACELLULAR HBV DNA INTEG. (HBV; [1]): 1.6 PG/UG CELL DNA and 1.7 PG/UG CELL DNA | INTRACELLULAR HBV DNA MONO. (HBV; [1]): 0.2 PG/UG CELL DNA and 0.1 PG/UG CELL DNA | INTRACELLULAR HBV DNA RI (HBV; [1]): 0.1 PG/UG CELL DNA | HBV DNA IN CULTURE MEDIUM DAY 0 (HBV; day 0 of treatment): 49 pg/mL and 58 pg/mL | HBV DNA IN CULTURE MEDIUM DAY 3 (HBV; day 3): 35 pg/mL and 41 pg/mL | HBV DNA IN CULTURE MEDIUM DAY 10 (HBV; day 10): 0 pg/mL

SMILES: Nc1nc(O)c2ncn(COC(CO)CO)c2n1 [DHPG, dihydroxy propoxymethyl guanine, reference compound]
EC50 (human CMV): 0.2 µg/mL (≈ 0.784 µM)

Ki (HSV-1 TK): 10.5 µM
SMILES: Nc1nc2c(ncn2[C@H]2C[C@H](O)[C@@H](CO)O2)c(=O)[nH]1 [dGuo, reference compound]
